Earlier results, collected in US20170135934A1, “Mouth Rinse for Prevention of Periodontal Disease” (priority 2015, published 2017).
Like-named read-outs stand apart in the source and are kept apart here. Residues, ends and D or L forms follow the SMILES beside them.

Experiments:
[1] = healthy volunteers; for urinary losses of dipeptides: continuous infusion; for side effects: continuous infusion of supplemented amino acid solution
[2] = system: intracellular glutamine pool; conditions: intravenous supply following cholecystectomy
[3] = system: biopsies from normal human ileum, proximal colon and rectosigmoid colon; conditions: compared with saline
[4] = patients, TPN over 5 days
rat lymphocytes = conditions: glutamine added to the medium
[5] = system: intestinal epithelial cell; conditions: heat shock at 43 degrees C.; concentrations higher than 1 mM

urinary losses of dipeptides [1] | peptide in plasma [4] | SMILES | side effects [1] | intracellular glutamine pool preserved [2] | crypt cell proliferation [3] | side effects [4] | proliferation of rat lymphocytes (radioactive thymidine) (rat lymphocytes) | percentage of floating cells [5]
about 1 % of the given dose | – | NCC(=O)N[C@@H](CCC(N)=O)C(=O)O [GlyGln, glycyl-L glutamine, reference compound] (H-Gly-Gln-OH) | not accompanied by any side effects | – | – | – | – | –
about 1 % of the given dose | not detectable | C[C@H](N)C(=O)N[C@@H](CCC(N)=O)C(=O)O [AlaGln, L-Alanyl-L-gutamine] (H-Ala-Gln-OH) | not accompanied by any side effects | 91 % of postoperative value | equally stimulated crypt cell proliferation | free of any side effects | – | –
– | – | NC(=O)CC[C@H](N)C(=O)O [glutamine] | – | – | equally stimulated crypt cell proliferation | – | four-fold | dose dependent decrease
